Experimental findings from patent US10947291B2, “Treating type I and type II diabetes” (Mayo Foundation for Medical Education and Research, priority 2013, dated 2021) are described below.

The test concerns female mice (C57/BL6) with streptozocin-induced hyperglycemia. Briefly: AAV1.CMV.insulin.RSV.icasp9 and AP20187 in streptozocin-treated C57/BL6 mice, blood glucose. Conditions: IP 10 mg/kg, five consecutive days starting on day 14 after AAV1.CMV.insulin.RSV.icasp9 (FIG. 6). Type of test: in vivo. Here is the method: FIG. 6 is a graph plotting glucose levels for three groups of mice. One group was treated intraperitoneally (IP) with streptozocin (STZ) for two weeks to develop hyperglycemia. A second group was treated intraperitoneally (IP) with streptozocin (STZ) for two weeks to develop hyperglycemia and then administered AAV1.CMV.insulin.RSV.icasp9 (AAV1) intramuscularly (IM) on day zero. The third group was treated intraperitoneally (IP) with streptozocin (STZ) for two weeks to develop hyperglycemia, was then administered AAV1.CMV.insulin.RSV.icasp9 (AAV1) intramuscularly (IM) on day zero followed by intraperitoneal (IP) administration of AP20187 (B/B) on days 14, 15, 16, 17, and 18.
To induce diabetes in mice, three groups of female mice (C57/BL6) were given, on 5 consecutive days, an intraperitoneal (IP) injection of Streptozocin (STZ; Sigma cat #50130) at 45 mg/kg body weight dissolved in 0.1 mol/L citrate buffer (pH 4.5) immediately before administration. Two weeks later, when hyperglycemia developed, two groups of mice were injected intramuscularly (IM) with 1×10E11 particles/mice of AAV1.CMV.insulin.RSV.icasp9. Blood glucose levels were determined using a Contour blood glucose test strips (Bayer HealthCare LLC). 14 days later, one group of mice was injected via IP injection with 10 mg/kg of AP20187 (B/B homodimerizer; Clontech, Cat. No. AP20187) for 5 consecutive days.

Consider `CC[C@H](C(=O)N1CCCCC1C(=O)O[C@H](CCc1ccc(OC)c(OC)c1)c1cccc(OCC(=O)NCC(CNC(=O)COc2cccc([C@@H](CCc3ccc(OC)c(OC)c3)OC(=O)[C@@H]3CCCCN3C(=O)[C@@H](CC)c3cc(OC)c(OC)c(OC)c3)c2)CN(C)C)c1)c1cc(OC)c(OC)c(OC)c1` (stereo partly shown) [AP20187], for which the “glucose levels after induction of the iCasp9 death switch” value is given as “steady increase in glucose levels”.
